Measurements taken from US20200218874A1, “A LABEL-FREE METHOD AND SYSTEM FOR MEASURING DRUG RESPONSE KINETICS OF THREE-DIMENSIONAL CELLULAR STRUCTURES” (AGENCY FOR SCIENCE, TECHNOLOGY AND RESEARCH, priority 2017, published 2020).
Entries after “also recorded” stand apart in the source; their conditions may differ.

Key:
[1] = system: patient-derived tumour spheroids (head and neck cancer patient); experiment: Label-free image-based drug response (LaFOS) of 3D tumour spheroids over time; assay type: cell-based, human; settings: for response of tumour spheroids over time (LaFOS time-course): 24, 48 and 72 hours after treatment, 1 μM
Method: The examples used in this disclosure were generated by seeding 5000 cells into each well of Corning® 384 Well Black Clear Round Bottom Ultra-Low Attachment Spheroid Microplates. The assay plates were incubated at 37° C., 5% CO2 over 3 days to allow formation of the tumour spheroids. At 96 hours, the spheroids were imaged (labelled as “untreated” in the study) using a confocal microscope at 20× (Perkin Elmer Opera Phenix High Content Screening system) and then treated at 1 μM of the compounds (in DMSO). In total, 1,231 spheroids were generated and treated in duplicates at 96 hours with small molecule and kinase inhibitors from the Selleck Anti-cancer library and Selleck Kinase Inhibitor chemical library. The drug treated spheroids were imaged subsequently at 24, 48 and 72 hours after treatment.
Bright-field images of the 1,231 spheroids acquired at different time-points and z-planes were computationally segmented into proliferating (red), quiescent (green) and necrotic (yellow) zones through a method referred to as “Spheroid Peeling” (FIG. 5). Other imaging methods can also be used—Phase contrast imaging, electron microscopy, wide-field, dark-field, super-resolution microscopy, and many more.
Briefly, “Spheroid Peeling” involves repeatedly segmenting the spheroid image from the periphery to the core zone. The entire spheroid was first segmented as an object (hereby referred to as spheroid object) and cropped from the original well image (FIG. 6). An “inner core” was then identified from the spheroid object, hereby referred to as quiescent object. The proliferating zone was obtained by masking the quiescent object from the spheroid object. Similarly, the necrotic zone was identified as the “inner core” of the quiescent object, and the quiescent zone was obtained by masking the necrotic zone from the quiescent object. A number of image features were quantified from each of the proliferating, quiescent and necrotic zones, resulting in a total of 504 image descriptors for each spheroid. The “spheroid peeling” algorithm can be written in a number of languages or image analysis tool, such as Cell Profiler, MATLAB or ImageJ.
FIG. 19 is a flow diagram 700 showing a machine learning based training method in accordance with the present disclosure for generating a computational model (or learning model) of drug response in spheroids. Two sets of spheroids were generated for imaging and for viability measurement, respectively. The two sets of spheroids were treated with the same drugs. For feasibility testing, a training set of 1,231 spheroids 1902 was generated. At 72 hours after drug treatment, acquisition 1904 of bright-field images 1906 was obtained. As data preprocessing 708, “Spheroid Peeling” 1910 was applied to obtain, through image feature quantification 1912, 504 image descriptors from the Proliferating, Quiescent and Necrotic zones of each tumour spheroid, resulting in over ˜600K image descriptors 1916 in total.
The learning process generated a computational model 1922 that can be perceived as a complex multi-feature numerical quantification of the drug response of the spheroids. Generating the computational model includes one or more of training the computational model or determining parameters of the computational model. […]

[2] = system: spheroids derived from a head and neck cancer patient; experiment: Micrograph morphology of drug-treated patient-derived spheroids; assay type: cell-based, human; settings: spheroids approximately 500 microns
Description: All three patient-derived spheroids are of similar sizes of approximately 500 microns.
On the other hand, morphological-based methods primarily use the size/volume or shape of the spheroids.

HN120M PDX = experiment: In vivo treatment of HN120M PDX-bearing mice; settings: mice n=6, 5 mg kg^−1 i.p. once every 2 days
Description: (§1) Generation and passaging of PDXs. Tumour samples were obtained from patients post-surgery after obtaining informed patient consent in accordance to SingHealth Centralized Institutional Review Board (CIRB: 2014/2093/B). Tumours were minced into 1 mm^3 fragments and suspended in a mixture of 5% Matrigel (Corning, cat. no. 354234) in DMEM/F12 (Thermo Fisher, cat. no. 10565-018). The tumour fragment mixtures were then implanted subcutaneously into the left and right flanks of 5-7 weeks old NSG (NOD.Cg-Prkdcscid II2rgtm1Wjl/SzJ) (Jackson Laboratory, stock no. 005557) mice, using 18-gauge needles. Tumours were excised and passaged when they reached 1.5 cm^3. […]
(§2) Gefitinib (Iressa) was prepared by dissolving a 250 mg clinical grade tablet (AstraZeneca) in sterile water containing 0.05% Tween-80 (Sigma-Aldrich, cat. no. P4780) to a concentration of 10 mg/mL and administered at a dosage of 25 mg/kg daily via oral gavage. […] The length and width of tumours were measured by caliper once every 2 days. […] The weight of tumour was not directly measured, but were estimated using volume where the density of tissue was assumed to be 1 g/cm^3. The ratio of the change in treated tumour volume (ΔT) to the average change in control tumour volume (ΔT/Average ΔC) at each time point was calculated as follows: […]

HN137P PDX = experiment: In vivo treatment of HN137P PDX-bearing mice; settings: male mice n=5, 2 mg kg^−1 i.p. once every 2 days
Description: as §1, §2

HN137M PDX = experiment: In vivo treatment of HN137M PDX-bearing mice; settings: male mice n=5, 2 mg kg^−1 i.p. once every 2 days
Description: as §1, §2

SMILES: Cn1c(=O)n(-c2ccc(C(C)(C)C#N)cc2)c2c3cc(-c4cnc5ccccc5c4)ccc3ncc21 [BEZ235]
- response of tumour spheroids over time (LaFOS time-course) [1]: remain unchanged; also recorded: unresponsive

SMILES: N.N.[Cl][Pt][Cl] [Cisplatin]
- morphological structure of tumour spheroid ([2]; high concentration): enlarged core zone
- morphological structure of tumour spheroid ([2]; low concentration): resembled that of the untreated spheroid

SMILES: CN1CC[C@H](c2c(O)cc(O)c3c(=O)cc(-c4ccccc4Cl)oc23)[C@H](O)C1 [Flavopiridol]
- efficacy in in vivo model (PDX) (HN120M PDX): already validated in in vivo models

SMILES: COc1ncc(-c2ccc3nccc(-c4ccnnc4)c3c2)cc1NS(=O)(=O)c1ccc(F)cc1F [GSK2126458]
- response of tumour spheroids over time (LaFOS time-course) [1]: increasing efficacy
- inhibition at 1 µM ([1]; Homo sapiens, over the course of 72 hours, duplicate spheroids (R1 and R2), treated at 1 μM, read-out: inhibition rate (4-dimensional drug response of tumor spheroids)): 80%

SMILES: COc1cc(N2CCC(N3CCN(C)CC3)CC2)ccc1Nc1ncc(Cl)c(Nc2ccccc2S(=O)(=O)C(C)C)n1 [NVP-TAE684]
- response of tumour spheroids over time (LaFOS time-course) [1]: increasing efficacy
- inhibition rate (4-dimensional drug response of tumor spheroids) ([1]; over the course of 72 hours, duplicate spheroids (R1 and R2), treated at 1 μM): 60%

SMILES: COCCn1c2c([n+](Cc3cnccn3)c1C)C(=O)c1ccccc1C2=O [YM155]
- anti-tumour effect in PDX (tumour volume vs vehicle) (HN137P PDX): did not display significant sensitivity
- anti-tumour effect in PDX (tumour volume vs vehicle) (HN137M PDX): significant anti-tumour effect
